Measurements taken from article PMC7221793, “Metabolism and Pharmacokinetics of SP-8356, a Novel (1S)-(−)-Verbenone Derivative, in Rats and Dogs and Its Implications in Humans” (Molecules, 2020).

Columns and labels:
[1] = In vivo metabolite identification, pooled dog plasma (Q-TOF LC-MS/MS); settings: i.v. SP-8356 50 mg/kg; for AUClast (%): % versus total AUClast of parent and all detected metabolites; for AUClast (AR∙h) × 10^2: AR = peak area ratio versus internal standard; for Tmax: male, Beagle, iv, time of highest AR
Method: (§1) Plasma samples from the i.v. administrations described in Section 4.2 and Section 4.3 were used in this study. Plasma samples pooled at each time point were subjected to sample preparation as described in Section 4.2. The prepared samples were analyzed by Agilent 6530 Q-TOF LC-MS/MS system equipped with dual AJS ESI ion source and Agilent 1200 series HPLC system as described below.
(§2) Chromatographic separation was achieved on an Agilent Eclipse C18 column (2.1 mm × 100 mm, 3.5 µm) by a gradient elution with a mobile phase consisting of 0.1 vol.% formic acid in water (A) and 0.1 vol.% formic acid in acetonitrile (B) at 50 °C: starting with 5 vol.% B for 2 min, ramping to 95 vol.% B over 1 min, maintaining for 3 min. The mobile phase flow rate was kept at 0.45 mL/min throughout the run. The sample injection volume was 5 µL. Ion source parameters were set as follows: capillary voltage, 3500 V; drying gas, 12 L/min and 300 °C; nebulizer gas, 30 psi; sheath gas, 12 L/min and 300 °C. Mass spectra were acquired in negative ion auto MS/MS mode (F, 135 V; CE, 25 eV) with full scan range of m/z (100–1000) and mass scan rate of 8 spectra/s. Metabolites were identified using Agilent MassHunter Metabolite ID software (version B.04.00) (Santa Clara, CA, USA). Chromatograms and mass spectra of the parent and identified metabolites were extracted using Agilent MassHunter Qualitative Analysis software (version B.05.00) (Santa Clara, CA, USA).

[2] = In vivo metabolite identification, pooled rat plasma (Q-TOF LC-MS/MS); settings: i.v. SP-8356 20 mg/kg; for AUClast (%): % versus total AUClast of parent and all detected metabolites; for AUClast (AR∙h) × 10^2: AR = peak area ratio versus internal standard; for Tmax: male, SD, iv, time of highest AR
Method: as §1, §2

[3] = In vivo metabolite identification, pooled rat urine; settings: rat pooled urine 0–24 h, single i.v. dose of SP-8356
Method: Rat urine samples were collected from the animal studies approved by the IACUC of Korea University (Approval No.: KUIACUC-2017-124; Approval date: Jul. 29, 2017). SP-8356 dissolved in DMA/Cremophor EL/saline (5/10/85 vol.%) was dosed i.v. at 10 mg/kg (n = 5/dose group) to male SD rats (8 weeks old; (255–275) g; Koatech Inc., Gyeonggi, Republic of Korea) housed individually in metabolic cages. Urine samples were collected for ((0–4), (4–8) and (8–24)) h. Pooled urine samples were mixed with equal volume of acetonitrile containing HSDH (1 μg/mL) as IS, followed by filtration with a syringeless filter device (Mini-UniPrep™, PTFE filter media with polypropylene housing, 0.45 µm). The filtrate was analyzed by Agilent 6530 Q-TOF LC-MS/MS system equipped with dual AJS ESI ion source and Agilent 1200 series HPLC system, as follows.
Chromatographic separation was achieved on an Agilent Eclipse C18 column (2.1 mm × 100 mm, 3.5 µm) by a gradient elution with a mobile phase consisting of 0.1 vol.% formic acid in water (A) and 0.1 vol.% formic acid in acetonitrile (B) at 50 °C: starting with 5 vol.% B for 2 min, ramping to 95 vol.% B over 1 min, maintaining for 3 min. The mobile phase flow rate was kept at 0.45 mL/min throughout the run. The sample injection volume was 5 µL. […]

Row | AUClast (%) [1] | AUClast (AR∙h) × 10^2 [1] | Tmax [1] | AUClast (%) [2] | AUClast (AR∙h) × 10^2 [2] | Tmax [2] | metabolites detected in urine [3] | SMILES
1 | 0.07% | 2.7 (AR∙h) × 10^2 | 4.98 min | 0.40% | 0.55 (AR∙h) × 10^2 | 1.02 min | – | CC1(C)[C@@H]2C[C@H]1C(/C=C/c1cc(O)c(O)c(O)c1)=CC2=O [M3]
2 | 3.05% | 120.5 (AR∙h) × 10^2 | 60 min | 0.84% | 1.14 (AR∙h) × 10^2 | 15 min | detected | COc1cc(C=CC2=CC(=O)C3CC2C3(C)C)cc(OC2OC(C(=O)O)C(O)C(O)C2O)c1OC1OC(C(=O)O)C(O)C(O)C1O (stereo not shown) [M5]
